Reference: patent EP4778929A1, “NOVEL TYPE I TOPOISOMERASE INHIBITOR, AND PREPARATION METHOD THEREFOR AND USE THEREOF” (priority 2023, dated 2025)

Experiments:
HCT116 cells = test: Inhibition of cell proliferation by CTG (CellTiter-Glo) luminescence assay; assay type: cell-based; conditions: Homo sapiens, HCT-116; 72 h incubation, CellTiter-Glo; read-out: HCT116, IC50
Description: Test Example 2. Determination of Compound-Mediated Inhibition of Cell Proliferation by CTG (CellTiter-Glo) Luminescence Assay
Principle: The Promega CellTiter-Glo™ luciferase reagent was used. Luciferase consumes ATP to generate light; metabolically active cells continuously produce ATP through respiration and other processes. After adding an equal volume of CellTiter-Glo™ reagent to the culture medium, the resulting luminescence is directly proportional to the ATP content, which in turn correlates with the number of viable cells. Thus, the assay quantifies compound-induced suppression of cell proliferation.
Experimental Procedure: HCT116 cells (ATCC) were revived in complete medium (McCoy's 5a + 10 % FBS). After two passages, exponentially growing cells were harvested, counted, and resuspended to the appropriate density. A 100 µL aliquot of cell suspension (2 000 cells per well) was seeded into 96-well plates and incubated overnight (37 °C, 5 % CO2, 100 % relative humidity). Test compounds were dissolved in DMSO to prepare 10 mM stock solutions and serially diluted 1:3 in DMSO to generate nine concentration steps. Each DMSO solution was further diluted 200-fold into medium; 25 µL of the resulting solutions were added to the cell plates (final DMSO concentration […]). After 72 h incubation (37 °C, 5 % CO2), 50 µL of CellTiter-Glo reagent was added per well. Plates were shaken gently, incubated for 30 min at room temperature in the dark, and luminescence was read on an EnVision multimode reader. Percent inhibition was calculated as: Inhibition % = (1−As/Ac) × 100, [formula] where As = signal from compound-treated wells and Ac = signal from DMSO-only control wells. Concentration-response data were fitted in Excel with the XLfit add-in using the four-parameter logistic equation: Y = Bottom + (Top−Bottom)/[1+((IC50/X))^(∧)HillSlope], [formula] to derive the IC50 value for each compound. Table 2. IC50 of compounds

[1] = Pharmacokinetic study in mice, plasma concentrations by LC-MS/MS; conditions: mouse, in vivo
Method: Test Example 3. Pharmacokinetic Study for Determining Compound Concentrations in Mice by LC-MS/MS
Principle: LC-MS/MS is used to quantify the plasma concentrations of the test article at successive time points, generating an in-vivo pharmacokinetic profile.
Procedure: The test compound was dissolved in DMSO to prepare a 10 mg/mL stock solution. This stock was further diluted to 1 mg/mL with a vehicle consisting of 10 % DMSO + 10 % Solutol HS-15 + 80 % saline. Male CD-1 mice (JH Laboratory Animal Co., LTD) were employed; six animals were assigned per compound group. […] Serial blood samples (~50 µL whole blood, K2EDTA anticoagulant) were collected at 0.083, 0.25, 0.5, 1, 2, 4, 8 and 24 h (three mice per time point in a crossover design). Blood was centrifuged at 6 000 g for 5 min at 4 °C; plasma was harvested and stored at -70 °C until analysis. Plasma drug concentrations were determined by LC-MS/MS.
Calibration Curve and QC Preparation: Working solutions were prepared by dilution with MeOH:H2O (1:1). For each calibration or QC level, 3 µL of working solution was spiked into 57 µL of blank mouse plasma.
Sample Processing: To 30 µL of plasma was added 200 µL of methanol containing the internal standard (propranolol, 40 ng mL^-1). After vortex-mixing for 1 min, the mixture was centrifuged at 12 000 rpm for 10 min. A 100 µL aliquot of the supernatant was transferred to a clean plate for injection.
Pharmacokinetic Analysis: Concentration-time data were analyzed with WinNonlin 8.2 using a non-compartmental approach to derive PK parameters including Cmax, Tmax, AUC and terminal elimination half-life (t1/2). AUC was calculated by the linear-up/log-down trapezoidal method. Table 3. Pk parameters of compounds

SMILES	IC50 (HCT116 cells) [nM]	other results
CC[C@@]1(O)C(=O)OCc2c1cc1n(c2=O)Cc2c-1c(=O)c1cc(F)c([C@H](O)C(F)(F)F)cc1n2C1CCCC1 (single isomer, unassigned) [Example 347]	< 20	–
CC[C@@]1(O)C(=O)OCc2c1cc1n(c2=O)Cc2c-1nc1cc(F)c(C)c3c1c2[C@@H](NC(=O)CO)CC3 [DXd]	–	AUC(0-t) at 24 h ([1]; iv, 1 mg/kg): 154 ng·h/mL; Cmax ([1]; iv, 1 mg/kg): 455 ng/mL; clearance ([1]; iv, 1 mg/kg): 108 mL/min/kg; half-life ([1]; iv, 1 mg/kg): 9.3 min; AUC(0-t) at 24 h ([1]; po, 10 mg/kg): 4.32 ng·h/mL; Cmax ([1]; po, 10 mg/kg): 6.99 ng/mL; Tmax ([1]; po, 10 mg/kg): 19.8 min; half-life ([1]; po, 10 mg/kg): 23.4 min
CCN1CC[C@@H](n2c3c(c(=O)c4cc(F)ccc42)-c2cc4c(c(=O)n2C3)COC(=O)[C@]4(O)CC)C1 [Example 251, (S)-4-ethyl-8-fluoro-4-hydroxy-11-((R)-1-ethylpyrrolidin-3-yl)-1,12-dihydro-14H-pyrano[3',4':6,7]indolizino[2,1-b] quinoline-3,6,14(4H,11H)-trione]	< 20	–
CC[C@@]1(O)C(=O)OCc2c1cc1n(c2=O)Cc2c-1c(=O)c1cc(F)ccc1n2[C@@H]1CCN(C2CC(C)(C)C2)C1 [Example 254, (S)-4-ethyl-8-fluoro-4-hydroxy-11-((R)-1-(3,3-dimethylcyclobutyl)pyrrolidin-3-yl)-1,12-dihydro-14H-pyrano[3',4':6,7]indolizino[2,1-b]quinoline-3,6,14(4H,11H)-trione]	< 20	–
CC[C@@]1(O)C(=O)OCc2c1cc1n(c2=O)Cc2c-1c(=O)c1cc(F)ccc1n2[C@@H]1CCN(C2CC(F)(F)C2)C1 [Example 255, (S)-4-ethyl-8-fluoro-4-hydroxy-11-((R)-1-(3,3-difluorocyclobutyl)pyrrolidin-3-yl)-1,12-dihydro-14H-pyrano[3',4':6,7]indolizino[2,1-b]quinoline-3,6,14(4H,11H)-trione]	< 20	–
CCCN1CC[C@@H](n2c3c(c(=O)c4cc(F)ccc42)-c2cc4c(c(=O)n2C3)COC(=O)[C@]4(O)CC)C1 [Example 258, (S)-4-ethyl-8-fluoro-4-hydroxy-11-((R)-1-n-propylpyrrolidin-3-yl)-1,12-dihydro-14H-pyrano[3',4':6,7]indolizino[2,1-b] quinoline-3,6,14(4H,11H)-trione]	< 20	–
CC[C@@]1(O)C(=O)OCc2c1cc1n(c2=O)Cc2c-1c(=O)c1cc(F)ccc1n2[C@@H]1CCN(CC(C)C)C1 [Example 260, (S)-4-ethyl-8-fluoro-4-hydroxy-11-((R)-1-isobutylpyrrolidin-3-yl)-1H-pyrano[3',4':6,7]indolizino[2,1-b]quinoline-3,6,14 (4H,11H,12H)-trione]	< 20	–
CCC(CC)N1CC[C@@H](n2c3c(c(=O)c4cc(F)ccc42)-c2cc4c(c(=O)n2C3)COC(=O)[C@]4(O)CC)C1 [Example 261, (S)-4-ethyl-8-fluoro-4-hydroxy-11-((R)-1-(pentan-3-yl)pyrrolidin-3-yl)-1H-pyrano[3,4:6,7]indolizino[2,1-b]quinoline-3,6,14 (4H,11H,12H)-trione]	< 20	–
CC[C@@]1(O)C(=O)OCc2c1cc1n(c2=O)Cc2c-1c(=O)c1cc(F)ccc1n2[C@@H]1CCN(C(C)C)C1 [Example 263, (S)-4-ethyl-8-fluoro-4-hydroxy-11-((R)-1-isopropylpyrrolidin-3-yl)-1H-pyrano[3,4:6,7]indolizino[2,1-b]quinoline-3,6,14 (4H,11H,12H)-trione]	< 20	–
CC[C@@]1(O)C(=O)OCc2c1cc1n(c2=O)Cc2c-1c(=O)c1cc(F)ccc1n2[C@@H]1CCN(C2CCC(F)(F)CC2)C1 [Example 267, (S)-11-((R)-1-(4,4-difluorocyclohexyl)pyrrolidin-3-yl)-4-ethyl-8-fluoro-4-hydroxy-1H-pyrano[3,4:6,7]indolizino[2,1-b]quinoline-3,6,14(4H,11H,12H)-trione]	< 20	–
CC[C@@]1(O)C(=O)OCc2c1cc1n(c2=O)Cc2c-1c(=O)c1cc(F)ccc1n2[C@@H]1CCN(C2CC3(CCC3)C2)C1 [Example 270, (S)-4-ethyl-8-fluoro-4-hydroxy-11-((R)-1-(spiro[3.3]heptan-2-yl)pyrrolidin-3-yl)-1H-pyrano[3,4:6,7]indolizino[2,1-b] quinoline-3,6,14(4H,11H,12H)-trione]	< 20	–
CC[C@@]1(O)C(=O)OCc2c1cc1n(c2=O)Cc2c-1c(=O)c1cc(F)ccc1n2[C@@H]1CCN(C2CC3(CC3)C2)C1 [Example 271, (S)-4-ethyl-8-fluoro-4-hydroxy-11-((R)-1-(spiro[2.3]hexan-5-yl)pyrrolidin-3-yl)-1H-pyrano[3',4':6,7]indolizino[2,1-b]quinoline-3,6,14(4H,11H,12H)-trione]	< 20	–
CC[C@@]1(O)C(=O)OCc2c1cc1n(c2=O)Cc2c-1c(=O)c1cc(F)ccc1n2[C@@H]1CCN(C2CC3CC3C2)C1 (stereo partly drawn) [Example 273, (4S)-11-((3R)-1-(bicyclo[3.1.0]hexan-3-yl)pyrrolidin-3-yl)-4-ethyl-8-fluoro-4-hydroxy-1H-pyrano[3',4':6,7]indolizino[2,1-b]quinoline-3,6,14(4H,11H,12H)-trione]	< 20	–
CC[C@@]1(O)C(=O)OCc2c1cc1n(c2=O)Cc2c-1c(=O)c1cc(F)ccc1n2[C@@H]1CCN(C2CC2)C1 [Example 274, (4S)-11-((3R)-1-cyclopropylpyrrolidin-3-yl)-4-ethyl-8-fluoro-4-hydroxy-1H-pyrano[3',4':6,7]indolizino[2,1-b]quinoline-3,6,14(4H,11H,12H)-trione]	< 20	–
CC[C@@]1(O)C(=O)OCc2c1cc1n(c2=O)Cc2c-1c(=O)c1cc(F)c(F)cc1n2[C@@H]1CCN(C)C1 [Example 277]	< 20	–
CC[C@@]1(O)C(=O)OCc2c1cc1n(c2=O)Cc2c-1c(=O)c1cc(F)c(C)cc1n2[C@@H]1CCN(C2CC(F)(F)C2)C1 [Example 280]	< 20	–
CC[C@@]1(O)C(=O)OCc2c1cc1n(c2=O)Cc2c-1c(=O)c1cc(F)c(Cl)cc1n2[C@@H]1CCN(C2CCC2)C1 [Example 282]	< 20	–
CC[C@@]1(O)C(=O)OCc2c1cc1n(c2=O)Cc2c-1c(=O)c1cc(F)c(Cl)cc1n2[C@@H]1CCN(C)C1 [Example 283]	< 20	–
CC[C@@]1(O)C(=O)OCc2c1cc1n(c2=O)Cc2c-1c(=O)c1cc(F)c(CO)cc1n2C1CC2(CCC2)C1 [Example 312]	< 20	–
CC[C@@]1(O)C(=O)OCc2c1cc1n(c2=O)Cc2c-1c(=O)c1cc(F)c(CC(C)O)cc1n2C1CCC(C)(C)CC1 (some centres unmarked) [Example 317]	< 20	–
CCC1(O)C(=O)OCc2c1cc1n(c2=O)Cc2c-1c(=O)c1cc(F)c(CO)cc1n2C12CC(C1)C2 (centres unmarked) [Example 327]	< 20	–
CC[C@@]1(O)C(=O)OCc2c1cc1n(c2=O)Cc2c-1c(=O)c1cc(F)c(N)cc1n2-c1cc(C)cc(C)c1 [Example 350]	< 20	–
CC[C@@]1(O)C(=O)OCc2c1cc1n(c2=O)Cc2c-1c(=O)c1cc(F)c(N)cc1n2C1CC2(CCC2)C1 [Example 358]	< 20	–
CC[C@@]1(O)C(=O)OCc2c1cc1n(c2=O)Cc2c-1c(=O)c1cc(F)c(N)cc1n2C12CC(C1)C2 [Example 359]	< 20	–
CC[C@@]1(O)C(=O)OCc2c1cc1n(c2=O)Cc2c-1c(=O)c1cc(F)ccc1n2[C@@H]1CCCN(C2CCCC2)C1 [Example 370]	< 20	–
CC[C@@]1(O)C(=O)OCc2c1cc1n(c2=O)Cc2c-1c(=O)c1cc(F)ccc1n2[C@H]1CCCN(C2CC(F)(F)C2)C1 [Example 372]	< 20	–
CC[C@@]1(O)C(=O)OCc2c1cc1n(c2=O)Cc2c-1c(=O)c1cc(F)ccc1n2C[C@H]1CCN(C2CC(F)(F)C2)C1 [Example 402]	< 20	–
CC[C@@]1(O)C(=O)OCc2c1cc1n(c2=O)Cc2c-1c(=O)c1cc(F)ccc1n2C[C@H]1CCN(C(C)C)C1 [Example 404]	< 20	–
